Test results as given in PubChem BioAssay AID248 (DTP/NCI, 2004).
Several values for one entry are separate records, joined by “and”; a condition that tells them apart may be missing. Identical values can stand only once. Toxic doses and inconclusive results are not listed. Cut-off read from the data, not from the text of the source: active = T/C of 150% or more; inactive = T/C below 125%.

Tested on: L1210 leukemia ip in BDF1 mice, survival T/C
Experiment: NCI In Vivo Anticancer Drug Screen. Data for tumor model L1210 Leukemia (intraperitoneal) in B6D2F1 (BDF1) mice
Settings: endpoint: mean survival time, higher = longer survival
How it was run: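 Survival endpoint. Drug-treated group vs vehicle group, expressed as T divided by C. Tumor passaged by transplantation.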

[1] = dose: 100.0 mg/kg/injection, schedule: Q01DX009 (ip), vehicle: Klucel (hydroxypropylcellulose) (HPC)
[2] = dose: 100.0 mg/kg/injection, schedule: Q04DX002 (ip), vehicle: Klucel (hydroxypropylcellulose) (HPC)
[3] = dose: 100.0 mg/kg/injection, schedule: Q04DX003 (ip), vehicle: Klucel (hydroxypropylcellulose) (HPC)
[4] = dose: 200.0 mg/kg/injection, schedule: Q01DX009 (ip), vehicle: Klucel (hydroxypropylcellulose) (HPC)
[5] = dose: 200.0 mg/kg/injection, schedule: Q04DX002 (ip), vehicle: Klucel (hydroxypropylcellulose) (HPC)
[6] = dose: 200.0 mg/kg/injection, schedule: Q04DX003 (ip), vehicle: Klucel (hydroxypropylcellulose) (HPC)
[7] = dose: 400.0 mg/kg/injection, schedule: Q01DX009 (ip), vehicle: Klucel (hydroxypropylcellulose) (HPC)
[8] = dose: 400.0 mg/kg/injection, schedule: Q04DX003 (ip), vehicle: Klucel (hydroxypropylcellulose) (HPC)
[9] = dose: 100.0 mg/kg/injection, schedule: Q01DX009 (ip), vehicle: saline
[10] = dose: 200.0 mg/kg/injection, schedule: Q01DX009 (ip), vehicle: saline
[11] = dose: 400.0 mg/kg/injection, schedule: Q01DX009 (ip), vehicle: saline
[12] = dose: 100.0 mg/kg/injection, schedule: Q01DX001 (ip), vehicle: carboxymethylcellulose (CMC)
[13] = dose: 100.0 mg/kg/injection, schedule: Q04DX003 (ip), vehicle: saline with Tween-80
[14] = dose: 200.0 mg/kg/injection, schedule: Q01DX001 (ip), vehicle: carboxymethylcellulose (CMC)
[15] = dose: 200.0 mg/kg/injection, schedule: Q04DX003 (ip), vehicle: saline with Tween-80
[16] = dose: 400.0 mg/kg/injection, schedule: Q01DX001 (ip), vehicle: carboxymethylcellulose (CMC)
[17] = dose: 400.0 mg/kg/injection, schedule: Q04DX003 (ip), vehicle: saline with Tween-80
[18] = dose: 100.0 mg/kg/injection, schedule: Q04DX003 (ip), vehicle: saline
[19] = dose: 200.0 mg/kg/injection, schedule: Q04DX003 (ip), vehicle: saline
[20] = dose: 100.0 mg/kg/injection, schedule: Q04DX002 (ip), vehicle: saline
[21] = dose: 200.0 mg/kg/injection, schedule: Q04DX002 (ip), vehicle: saline
[22] = dose: 400.0 mg/kg/injection, schedule: Q04DX002 (ip), vehicle: saline
[23] = dose: 100.0 mg/kg/injection, schedule: Q04DX002 (ip), vehicle: saline with Tween-80
[24] = dose: 200.0 mg/kg/injection, schedule: Q04DX002 (ip), vehicle: saline with Tween-80
[25] = dose: 400.0 mg/kg/injection, schedule: Q04DX002 (ip), vehicle: saline with Tween-80
[26] = dose: 400.0 mg/kg/injection, schedule: Q04DX003 (ip), vehicle: saline

Measured: T/C

O=C(NC(=S)Nc1ccccc1C(F)(F)F)c1ccccc1F
inactive: [1] 98 % of control and 103 % of control | [2] 105 % of control and 110 % of control | [3] 93 % of control | [4] 98 % of control and 111 % of control | [5] 105 % of control and 90 % of control | [6] 90 % of control | [7] 94 % of control and 108 % of control | dose: 400.0 mg/kg/injection, schedule: Q04DX002 (ip), vehicle: Klucel (hydroxypropylcellulose) (HPC) 94 % of control and 113 % of control | [8] 91 % of control

O=C1OCC/C1=C/OCCO/C=C1\CCOC1=O
inactive: [2] 94 % of control | [5] 90 % of control

NC(=S)N/N=C/c1cccn1-c1ccc2ncccc2c1[N+](=O)[O-]
inactive: dose: 25.0 mg/kg/injection, schedule: Q04DX002 (ip), vehicle: Klucel (hydroxypropylcellulose) (HPC) 93 % of control | dose: 50.0 mg/kg/injection, schedule: Q04DX002 (ip), vehicle: Klucel (hydroxypropylcellulose) (HPC) 93 % of control | [2] 90 % of control

CCC(=O)OC/C=C/c1ccccc1
inactive: [9] 95 % of control | dose: 100.0 mg/kg/injection, schedule: Q04DX003 (ip), vehicle: alcohol 100 % of control | [10] 102 % of control | dose: 200.0 mg/kg/injection, schedule: Q04DX003 (ip), vehicle: alcohol 98 % of control | [11] 95 % of control | dose: 400.0 mg/kg/injection, schedule: Q04DX003 (ip), vehicle: alcohol 94 % of control

COc1cc(C)c(CN(C)C)c(OC)c1
inactive: dose: 27.0 mg/kg/injection, schedule: Q01DX Z (ip), vehicle: methylcellulose (MC) 102 % of control

O=C1CSC(=S)N1c1ccccc1
inactive: [12] 95 % of control | [13] 96 % of control | [14] 97 % of control | [15] 93 % of control | [16] 93 % of control | [17] 90 % of control

CCCc1c(N)nc(=S)[nH]c1C(=O)O
inactive: [1] 102 % of control | [18] 96 % of control | [4] 97 % of control | [19] 119 % of control | [7] 94 % of control

CCCCCCCCCC(=O)N(CCCC)CCCC
inactive: dose: 50.0 mg/kg/injection, schedule: Q01DX009 (ip), vehicle: Klucel (hydroxypropylcellulose) (HPC) 102 % of control | [1] 105 % of control | [20] 95 % of control | [4] 109 % of control | [21] 101 % of control | [22] 88 % of control

O=C(CC(=O)NO)NO
inactive: [23] 103 % of control | [20] 97 % of control | [24] 97 % of control | [21] 100 % of control | [25] 97 % of control | [22] 100 % of control

CCOc1ccc(OCC)c(NC(=O)Nc2ccc(F)c([N+](=O)[O-])c2)c1
inactive: [1] 101 % of control | [4] 93 % of control | [7] 87 % of control

O=C1c2cscc2Cc2ccsc21
inactive: dose: 100.0 mg/kg/injection, schedule: Q01DX001 (ip), vehicle: saline with Tween-80 88 % of control | dose: 200.0 mg/kg/injection, schedule: Q01DX001 (ip), vehicle: saline with Tween-80 91 % of control

CCc1ccc(OC/C=C(/C)CC/C=C(\C)CCC=C(C)C)cc1
inactive: [23] 110 % of control | [24] 97 % of control | [25] 87 % of control

CC(O)COCCOCCO (configuration not stated)
inactive: [18] 96 % of control | [19] 99 % of control | [26] 94 % of control

C[As](C)Sc1ncccn1
inactive: dose: 6.25 mg/kg/injection, schedule: Q01DX009 (ip), vehicle: Klucel (hydroxypropylcellulose) (HPC) 100 % of control | dose: 12.5 mg/kg/injection, schedule: Q01DX009 (ip), vehicle: Klucel (hydroxypropylcellulose) (HPC) 103 % of control | dose: 12.5 mg/kg/injection, schedule: Q04DX003 (ip), vehicle: Klucel (hydroxypropylcellulose) (HPC) 98 % of control | dose: 25.0 mg/kg/injection, schedule: Q04DX003 (ip), vehicle: Klucel (hydroxypropylcellulose) (HPC) 95 % of control

CC(=O)OCc1c(C)[nH]c2ccc(N(C)C)cc2c1=O
inactive: dose: 100.0 mg/kg/injection, schedule: Q01DX009 (ip), vehicle: saline with Tween-80 102 % of control | dose: 200.0 mg/kg/injection, schedule: Q01DX009 (ip), vehicle: saline with Tween-80 112 % of control

c1ccc(-c2nc(-c3nccc4ccccc34)oc2-c2ccccc2)cc1
inactive: dose: 100.0 mg/kg/injection, schedule: Q01DX001 (ip), vehicle: saline 97 % of control | dose: 200.0 mg/kg/injection, schedule: Q01DX001 (ip), vehicle: saline 88 % of control | dose: 400.0 mg/kg/injection, schedule: Q01DX001 (ip), vehicle: saline 93 % of control

COc1ccc(-c2ccc(OC)cc2[N+](=O)[O-])c([N+](=O)[O-])c1
inactive: [12] 100 % of control | [14] 100 % of control | [16] 102 % of control

[N-]=[N+]=NC(=O)c1cccc2c1Cc1ccccc1-2
inactive: [13] 96 % of control | [15] 86 % of control | [17] 96 % of control

O=c1c2ccccc2[nH]c2ncccc12
inactive: [2] 96 % of control | [5] 92 % of control

CCOCCOCCCNCc1cnc2nc(N)nc(N)c2n1
inactive: dose: 10.0 mg/kg/injection, schedule: Q01DX009 (ip), vehicle: saline 97 % of control | dose: 20.0 mg/kg/injection, schedule: Q01DX009 (ip), vehicle: saline 103 % of control | dose: 40.0 mg/kg/injection, schedule: Q01DX009 (ip), vehicle: saline 103 % of control

CC(N)COCc1ccccc1 (configuration not stated)
inactive: dose: 25.0 mg/kg/injection, schedule: Q01DX009 (ip), vehicle: saline 97 % of control | dose: 25.0 mg/kg/injection, schedule: Q04DX003 (ip), vehicle: saline with Tween-80 97 % of control | dose: 50.0 mg/kg/injection, schedule: Q01DX009 (ip), vehicle: saline 97 % of control | dose: 50.0 mg/kg/injection, schedule: Q04DX003 (ip), vehicle: saline with Tween-80 119 % of control | [13] 97 % of control and 88 % of control

Cc1ccc(COC(=O)c2ccccc2)cc1
inactive: [1] 101 % of control | [3] 103 % of control | [4] 98 % of control | [6] 97 % of control | [7] 95 % of control | [8] 97 % of control

Nc1nc(N)c2cc(CNc3ccc(C(=O)NC(CCCC(=O)O)C(=O)O)cc3)cnc2n1 (configuration not stated)
inactive: [17] 87 % of control
active: [13] 158 % of control and 175 % of control | [15] 154 % of control

CC[N+](C)(CC)CCCOC(=O)C(c1ccccc1)c1ccccc1
inactive: dose: 6.25 mg/kg/injection, schedule: Q04DX003 (ip), vehicle: saline 94 % of control | dose: 12.5 mg/kg/injection, schedule: Q04DX003 (ip), vehicle: saline 96 % of control | dose: 25.0 mg/kg/injection, schedule: Q04DX003 (ip), vehicle: saline 96 % of control

CCOC(=O)c1ccc(NC(=O)Nc2cc(Cl)ccc2OC)cc1
inactive: [9] 106 % of control | [18] 109 % of control | [10] 92 % of control | [19] 97 % of control | [11] 92 % of control | [26] 92 % of control

CCOC(=N)CC(=N)OCC
inactive: dose: 100.0 mg/kg/injection, schedule: Q01DX009 (ip), vehicle: water 96 % of control | dose: 100.0 mg/kg/injection, schedule: Q04DX003 (ip), vehicle: water 97 % of control | dose: 200.0 mg/kg/injection, schedule: Q01DX009 (ip), vehicle: water 101 % of control | dose: 200.0 mg/kg/injection, schedule: Q04DX003 (ip), vehicle: water 93 % of control | dose: 400.0 mg/kg/injection, schedule: Q01DX009 (ip), vehicle: water 97 % of control | dose: 400.0 mg/kg/injection, schedule: Q04DX003 (ip), vehicle: water 97 % of control

O=C(COc1ccccc1)Nc1ccc([N+](=O)[O-])cc1O
inactive: [3] 97 % of control | [6] 100 % of control | [8] 103 % of control
